What is called IC50 is the concentration that gives 50% inhibition. Low values mean greater potency in that assay, high ones weaker potency in that assay.

These results are taken from ChEMBL document CHEMBL1144549, “Preparation of secolycorines against acetylcholinesterase” (Bioorg Med Chem, 2007).

In the test the target is Acetylcholinesterase (Electrophorus electricus, UniProt O42275). The test is described as follows: Inhibition of eel AChE.
Acetylcholinesterase, sequence (O42275 whole entry): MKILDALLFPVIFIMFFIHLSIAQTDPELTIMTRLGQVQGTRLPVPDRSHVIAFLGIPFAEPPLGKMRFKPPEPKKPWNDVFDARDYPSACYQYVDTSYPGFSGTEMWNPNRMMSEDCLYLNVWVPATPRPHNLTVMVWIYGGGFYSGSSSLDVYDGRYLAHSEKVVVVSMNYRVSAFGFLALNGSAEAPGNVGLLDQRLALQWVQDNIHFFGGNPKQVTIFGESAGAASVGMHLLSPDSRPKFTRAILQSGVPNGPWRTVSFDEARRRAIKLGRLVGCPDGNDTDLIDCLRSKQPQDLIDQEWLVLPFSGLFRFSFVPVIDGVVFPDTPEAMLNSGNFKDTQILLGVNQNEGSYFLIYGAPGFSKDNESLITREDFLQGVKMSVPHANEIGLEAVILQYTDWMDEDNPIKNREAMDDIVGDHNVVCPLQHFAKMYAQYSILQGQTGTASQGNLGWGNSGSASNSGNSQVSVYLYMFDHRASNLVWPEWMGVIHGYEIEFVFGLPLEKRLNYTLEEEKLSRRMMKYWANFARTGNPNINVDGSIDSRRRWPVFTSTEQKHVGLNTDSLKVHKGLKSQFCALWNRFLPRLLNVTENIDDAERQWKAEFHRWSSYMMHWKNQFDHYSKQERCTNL

On to `C=Cc1cccc2c1N(CCCCCC)Cc1cc3c(cc1-2)OCO3`, for which the concentration for half-maximal inhibition (IC50) was < 5 µM.

As for `C=Cc1cccc2c1N(CCCC)Cc1cc3c(cc1-2)OCO3`, the 50% inhibitory concentration (IC50) was determined as 2.66 µM.

Turning to `C=Cc1cccc2c1N(CCCCC)Cc1cc3c(cc1-2)OCO3`, the IC50 was < 5 µM.

Compound `CCc1cccc2c1N(C)Cc1cc3c(cc1-2)OCO3` gave an IC50 of 3 µM.

In turn, `C=Cc1cccc2c1N(C)Cc1cc3c(cc1-2)OCO3` came in with an IC50 of 2.89 µM.

As for `C=Cc1cccc2c1N(CCC)Cc1cc3c(cc1-2)OCO3`, inhibition was half-maximal at 10.6 µM (IC50). Against the preceding compound, the IC50 is about 3.7-fold higher.

`CCCN1Cc2cc3c(cc2-c2cccc(CC)c21)OCO3` gave a half-inhibitory concentration (IC50) of 9.98 µM.

For `CCCCN1Cc2cc3c(cc2-c2cccc(CC)c21)OCO3`, half-maximal inhibition (IC50) required 5.44 µM.

On to `CCCCCN1Cc2cc3c(cc2-c2cccc(CC)c21)OCO3`, for which the half-inhibitory concentration (IC50) was < 5 µM.

On to `CCc1cccc2c1N(CC)Cc1cc3c(cc1-2)OCO3`, for which the IC50 was 8.82 µM.

Take `CCCCCCN1Cc2cc3c(cc2-c2cccc(CC)c21)OCO3`: the 50% inhibitory concentration (IC50) is < 5 µM.

In the case of `C=Cc1cccc2c1N(CC)Cc1cc3c(cc1-2)OCO3`, the IC50 is 8.35 µM.
